Data on five compounds can be found in ChEMBL document CHEMBL6127141, “1-Deoxynojirimycin Derivative Containing Tegafur Induced HCT-116 Cell Apoptosis through Mitochondrial Dysfunction and Oxidative Stress Pathway” (ACS Med Chem Lett, 2024).

One data set relates to HeLa. Briefly: Cytotoxicity against human HeLa cells assessed as inhibition of cell proliferation incubated for 48 hrs by MTT assay. It counts as functional, cell-based. A general note: Tetrazolium dyes change colour on reduction, which living cells bring about.
The subject of a further data set is HCC1937. Briefly: Cytotoxicity against human HCC1937 cells assessed as inhibition of cell proliferation incubated for 48 hrs by MTT assay. The following applies: HCC1937, 48 h. It counts as functional, cell-based.
Another data set has as its system A549. Briefly: Cytotoxicity against human A549 cells assessed as inhibition of cell proliferation incubated for 48 hrs by MTT assay. In kind it is functional, cell-based. The following applies: A549, 48 h.
Data set [1] has as its system HCT-116. Nature of the data set: Cytotoxicity against human HCT-116 cells assessed as inhibition of cell proliferation incubated for 48 hrs by MTT assay. In kind it is functional, cell-based. The following applies: HCT-116, 48 h.
The test system of the next data set is BGC-823. Nature of the data set: Cytotoxicity against human BGC-823 cells assessed as inhibition of cell proliferation incubated for 48 hrs by MTT assay. In kind it is functional, cell-based. To be noted: BGC-823, 48 h.
Another data set relates to HepG2. Briefly: Cytotoxicity against human HepG2 cells assessed as inhibition of cell proliferation incubated for 48 hrs by MTT assay. In kind it is functional, cell-based. To be noted: HepG2, 48 h.
The subject of a further data set is L02. Nature of the data set: Cytotoxicity against human L02 cells assessed as inhibition of cell proliferation incubated for 48 hrs by MTT assay. In kind it is functional, cell-based. The following applies: L02, 48 h.
Data set [2] in a line: Selectivity index, ratio of IC50 for cytotoxicity against human L02 cells to IC50 for cytotoxicity against human HCT-116 cells. To be noted: L02 cells and HCT-116 cells, read-out: Ratio IC50. It counts as toxicity, cell-based.
Data set [3] concerns HCT-116. Briefly: Anti-metastatic activity in human HCT-116 cells assessed as inhibition of cell migration by measuring wound healing rate at 10 uM incubated for 24 hrs by inverted fluorescence microscopic analysis relative to control. It counts as functional. On the set-up: scale not given: the % may be the effect or the level left.
Data set [4] deals with HCT-116. Briefly: Anti-metastatic activity in human HCT-116 cells assessed as inhibition of cell migration by measuring wound healing rate at 10 uM incubated for 24 hrs in presence of 1-Deoxynojirimycin by inverted fluorescence microscopic analysis relative to control. In kind it is functional. More on the design: scale not given: the % may be the effect or the level left.

In data set [5] the test system is HCT-116. Nature of the data set: Induction of cell cycle arrest in human HCT-116 cells assessed as accumulation of cells at S phase at 10 uM incubated for 24 hrs by flow cytometric analysis (reference value: 4.7 %). It counts as functional.
Data set [6] has as its system HCT-116. Briefly: Induction of cell cycle arrest in human HCT-116 cells assessed as accumulation of cells at S phase at 10 uM incubated for 24 hrs in presence of 1-Deoxynojirimycin by flow cytometric analysis (reference value: 4.7 %). It counts as functional. (In general: In flow cytometry, cells or beads pass a laser one at a time.)
For data set [7], the system named is HCT-116. Nature of the data set: Induction of apoptosis in human HCT-116 cells assessed as apoptotic cells at 10 uM incubated for 24 hrs by Annexin V-FITC/PI staining based flow cytometric analysis relative to control. It counts as functional.
Data set [8] relates to HCT-116. Briefly: Induction of apoptosis in human HCT-116 cells assessed as apoptotic cells at 10 uM incubated for 24 hrs in presence of 1-Deoxynojirimycin by Annexin V-FITC/PI staining based flow cytometric analysis relative to control. It counts as functional.
Data set [9] is described as follows: Lipophilicity, logP of compound in n-octanol saturated PBS incubated for 24 hrs by shake-flask method based ultraviolet spectrophotometry. It counts as physicochemical.
A further data set has as its target Alpha glucosidase (Homo sapiens, UniProt O43451+P10253+P14410+Q2M2H8). Briefly: Inhibition of alpha-glucosidase (unknown origin) using para-nitrophenyl-alpha-d-glucopyranoside as substrate preincubated for 5 mins followed by substrate addition and measured after 30 mins by microplate reader. It counts as protein assay.
Data set [10] concerns HCT-116. Briefly: Anti-metastatic activity in human HCT-116 cells assessed as inhibition of cell migration by measuring wound healing rate at 10 uM incubated for 24 hrs in presence of tegafur by inverted fluorescence microscopic analysis relative to control. In kind it is functional. More on the design: scale not given: the % may be the effect or the level left.
For data set [11], the system named is HCT-116. Briefly: Induction of cell cycle arrest in human HCT-116 cells assessed as accumulation of cells at S phase at 10 uM incubated for 24 hrs in presence of tegafur by flow cytometric analysis (reference value: 4.7 %). In kind it is functional.
Data set [12] has as its system HCT-116. Nature of the data set: Induction of apoptosis in human HCT-116 cells assessed as apoptotic cells at 10 uM incubated for 24 hrs in presence of tegafur by Annexin V-FITC/PI staining based flow cytometric analysis relative to control. In kind it is functional.
A short description of data set [13]: Potency index, ratio of 1-Deoxynojirimycin IC50 to test compound IC50 for cytotoxicity against human HCT-116 cells assessed as inhibition of cell proliferation incubated for 48 hrs by MTT assay. In kind it is functional.
The subject of data set [14] is HCT-116. Briefly: Inhibition of colony formation in human HCT-116 cells at 5 to 10 uM incubated for 48 hrs by crystal purple staining based analysis. The following applies: dose 5-10 µM. It counts as functional, cell-based.
The test system of data set [15] is HCT-116. Nature of the data set: Induction of apoptosis in human HCT-116 cells assessed as cell contraction at 10 uM incubated for 24 hrs by Hoechst 33342 staining based fluorescence microscopic analysis. In kind it is functional.
Data set [16] deals with HCT-116. Nature of the data set: Induction of apoptosis in human HCT-116 cells assessed as appearance of bright blue appearance at 10 uM incubated for 24 hrs by Hoechst 33342 staining based fluorescence microscopic analysis. It counts as functional, cell-based.
Another data set deals with Mitochondrial membrane. Nature of the data set: Induction of mitochondrial membrane potential loss in human HCT-116 cells assessed as decrease in red fluorescence at 10 uM incubated for 24 hrs by JC-1 staining based fluorescence microscopic analysis. In kind it is cell membranes.
For data set [17], the system named is HCT-116. Nature of the data set: Induction of ROS accumulation in human HCT-116 cells assessed as increase in green fluorescence intensity at 5 to 10 uM incubated for 24 hrs by DCFH-DA staining based fluorescence microscopic analysis. It counts as functional, cell-based. The following applies: dose 5-10 µM.
In data set [18] the test system is HCT-116. Nature of the data set: Induction of ROS accumulation in human HCT-116 cells assessed as increase in green fluorescence intensity at 5 to 10 uM preincubated with NAC for 3 hrs followed by compound addition and measured after 24 hrs by DCFH-DA staining based fluorescence microscopic analysis. In kind it is functional, cell-based. To be noted: dose 5-10 µM.

Data set [19] relates to HCT-116. Briefly: Cytotoxicity against human HCT-116 cells assessed as inhibition of cell proliferation at 5 to 10 uM preincubated with NAC for 3 hrs followed by compound addition and measured after 48 hrs by MTT assay. In kind it is functional, cell-based. The following applies: dose 5-10 µM.
Data set [20] has as its system HCT-116. Briefly: Induction of DNA damage in human HCT-116 cells assessed as increase in TS protein expression at 10 uM incubated for 24 hrs by Western blot analysis. In kind it is functional, cell-based. Background: A western blot detects proteins with antibodies after separation by electrophoresis.
For data set [21], the system named is HCT-116. Nature of the data set: Induction of apoptosis in human HCT-116 cells assessed as upregulation of Bax protein level at 10 uM incubated for 24 hrs by Western blot analysis. It counts as functional, cell-based.
The subject of data set [22] is HCT-116. Briefly: Induction of apoptosis in human HCT-116 cells assessed as downregulation of Bcl2 protein level at 10 uM incubated for 24 hrs by Western blot analysis. It counts as functional, cell-based.
Data set [23] deals with HCT-116. Briefly: Induction of oxidative stress in human HCT-116 cells assessed as increase in MDA level at 5 to 10 uM incubated for 24 hrs by Lipid Peroxidation MDA assay. In kind it is functional, cell-based. The following applies: dose 5-10 µM.
Data set [24] has as its system HCT-116. Briefly: Induction of oxidative stress in human HCT-116 cells assessed as increase in NO level at 5 to 10 uM incubated for 24 hrs. In kind it is functional, cell-based. To be noted: dose 5-10 µM.
For data set [25], the system named is HCT-116. Nature of the data set: Induction of oxidative stress in human HCT-116 cells assessed as decrease in GSH concentration at 5 to 10 uM incubated for 24 hrs. It counts as functional, cell-based. To be noted: dose 5-10 µM.
The test system of data set [26] is HCT-116. Briefly: Induction of oxidative stress in human HCT-116 cells assessed as decrease in SOD concentration at 5 to 10 uM incubated for 24 hrs. It counts as functional, cell-based. To be noted: dose 5-10 µM.
Data set [27] concerns HCT-116. Nature of the data set: Induction of oxidative stress in human HCT-116 cells assessed as decrease in Nrf2 level at 10 uM incubated for 24 hrs by Western blot analysis. In kind it is functional, cell-based.

SMILES strings stand for the structures. Active and inactive are the calls of the source. The rule behind the calls is not given here. Bounds are passed on as bounds.

As for `O=c1[nH]c(=O)n(C2CCCO2)cc1F` (configuration not stated) [TEGAFUR], the IC50 was 96.1 µM with HeLa; > 100 µM with HCC1937; > 100 µM in the data set on A549; 88.6 µM in the data set with HCT-116 [1]; 99.4 µM in the data set on BGC-823; > 100 µM in the data set on HepG2. In the data set on L02, the IC50 turned out to be 23.5 µM. The selectivity ratio in data set [2] came out at 0.27. Besides, the Activity is 44.37% in the data set with HCT-116 [3]; 32% in the data set with HCT-116 [4]; 43.81% in the data set on HCT-116 [5]; 34.84% with HCT-116 [6]; 8.99% with HCT-116 [7]; 15.17% in the data set on HCT-116 [8].

For `O=c1c(F)cn(C2CCCO2)c(=O)n1CCCCCN1C[C@H](O)[C@@H](O)[C@H](O)[C@H]1CO` (some centres not stated), the logP at 24 h in [9] was -2.49. In addition, the concentration for half-maximal inhibition (IC50) was 40.96 µM against Alpha glucosidase; 29.3 µM in the data set with HeLa; 43.2 µM in the data set on HCC1937; 57.6 µM in the data set on A549; 15.6 µM in the data set on HCT-116 [1]; 38.6 µM with BGC-823. For the same compound, the IC50 with HepG2 was 40.7 µM; with L02, 56.3 µM. In data set [2], the selectivity ratio came out at 3.6.

`OC[C@H]1NC[C@H](O)[C@@H](O)[C@@H]1O` [DUVOGLUSTAT]: the logP at 24 h in [9] was -0.68. The IC50 in the data set on HeLa, in the data set with HCC1937, with A549, with HCT-116 [1], with BGC-823 and in the data set with HepG2 was > 100 µM in each case. In addition, in the data set with L02, the IC50 is > 100 µM. The Activity with HCT-116 [3] is listed as 51.91%; in the data set on HCT-116 [10] it was 32%; in the data set on HCT-116 [5], 11.29%; with HCT-116 [11], 34.84%; with HCT-116 [7], 6.16%; in the data set with HCT-116 [12], 15.17%.

For the compound `O=c1c(F)cn(C2CCCO2)c(=O)n1CCCCCCCCCCCN1C[C@H](O)[C@@H](O)[C@H](O)[C@H]1CO` (some centres not stated), the logP at 24 h in data set [9] worked out at 1.02. Moreover, the IC50 at Alpha glucosidase was determined as 2.76 µM; in the data set with HeLa, 13 µM; in the data set on HCC1937, 9.14 µM; with A549, 6.34 µM; with HCT-116 [1] it was 1.37 µM; in the data set with BGC-823 it was 4.35 µM. Also, the results for the IC50 with HepG2 and with L02 were 7.72 µM and 19.7 µM, respectively. Moreover, the selectivity ratio in data set [2] turned out to be 14.4. Besides, the “Ratio IC50” value in data set [13] is 73. Moreover, the inhibition entry in the data set on HCT-116 [14] is “Active”. Further, the Activity worked out at 9.42% with HCT-116 [3], 49.31% in the data set with HCT-116 [5] and 69.8% in the data set on HCT-116 [7]. Further, the outcome in the data set on HCT-116 [15], in the data set with HCT-116 [16], in the data set on Mitochondrial membrane, in the data set with HCT-116 [17], with HCT-116 [20] and in the data set on HCT-116 [21] was Active. Moreover, the outcome in the data set with HCT-116 [22], in the data set on HCT-116 [23], in the data set on HCT-116 [24], in the data set on HCT-116 [25], in the data set with HCT-116 [26] and in the data set on HCT-116 [27] was Active. Further, the result in the data set on HCT-116 [18] and in the data set on HCT-116 [19] was inactive.

Take `O=c1c(F)cn(C2CCCO2)c(=O)n1CCCCCCCCN1C[C@H](O)[C@@H](O)[C@H](O)[C@H]1CO` (some centres not stated): the logP at 24 h in data set [9] was -0.65. The IC50 against Alpha glucosidase was 15.09 µM; in the data set with HeLa, 26.8 µM; with HCC1937 it was 19.7 µM; in the data set with A549, 19.4 µM; in the data set with HCT-116 [1], 7.32 µM; in the data set on BGC-823, 12.5 µM. The values for the IC50 with HepG2 and with L02 were 14.8 µM and 29.3 µM, respectively. In addition, the selectivity ratio in [2] stood at 4.

By IC50 is commonly meant the point on the concentration scale where inhibition reaches its midpoint. For orientation: logP means the decadic logarithm of the partition coefficient of the neutral form, usually between octanol and water.
